Like-named read-outs stand apart in the source and are kept apart here.

The source of these data is patent publication US8119621B2, “Tetrahydro-cyclopentyl pyrazole cannabinoid modulators” (Janssen Pharmaceutica N.V., priority 2005, dated 2012).

The target of test [1] is T1, human CB1 receptor (Homo sapiens, UniProt P21554).
T1 construct: expressed in transfected cells; host or cells: SK-N-MC cells, stably transfected with pcDNA3 CB-1 (human); semi-purified membrane pellet
The test can be described thus: Binding assay for CB1 agonists or inverse agonists ([3H]-CP-55,940 displacement, SK-N-MC membranes). The conditions noted are these: for inhibition at 0.25 µM: read-out: CB1 receptor binding percent inhibition. On the procedure:
(§1) The human CB1 and CB2 receptors were stably expressed in SK-N-MC cells transfected with pcDNA3 CB-1 (human) or pcDNA3 CB-2 (human). The cells were grown in T-180 cell culture flasks under standard cell culture conditions at 37° C. in a 5% CO2 atmosphere. The cells were harvested by trysinization and homogenized in a homogenization buffer (10 mM Tris, 0.2 mM MgCl2, 5 mM KCl, with protease inhibitors aprotinin, leupeptin, pepstatin A and bacitracin) and centrifuged (2000 g). The supernatant was then centrifuged in 2M sucrose (31,300 g) to produce a semi-purified membrane pellet. The pellet was resuspended in homogenization and stored at −80° C.
(§2) On the day of the assay, the pellet was thawed on ice and diluted in assay buffer (50 mM Tris-HCl, 5 mM MgCl2, 2.5 mM EDTA, 0.5 mg/mL fatty acid free bovine serum albumin, pH 7.5). […] The plate was covered and incubated for 90 minutes at 30° C. The contents were then aspirated onto a Packard Unifilter GF/C filter bottom plate prewet with 0.5% polyethyleneimine. The wells of the polypropylene plate were rinsed and aspirated seven times with a 0.9% saline-0.5% Tween 20 solution. The Unifilter plate was dried, a scintillation cocktail was added to each well and the counts representing binding were quantitated in a TopCount scintillation counter.
(§3) For compounds tested, an IC50 binding value was obtained from percent inhibition studies in which various test concentrations were used. The binding value was calculated by linear regression.

For the next test, the target named is T2, human CB2 receptor (Homo sapiens, UniProt P34972).
T2 construct: expressed in transfected cells; host or cells: SK-N-MC cells, stably transfected with pcDNA3 CB-2 (human); semi-purified membrane pellet
T2 sequence (P34972 whole entry): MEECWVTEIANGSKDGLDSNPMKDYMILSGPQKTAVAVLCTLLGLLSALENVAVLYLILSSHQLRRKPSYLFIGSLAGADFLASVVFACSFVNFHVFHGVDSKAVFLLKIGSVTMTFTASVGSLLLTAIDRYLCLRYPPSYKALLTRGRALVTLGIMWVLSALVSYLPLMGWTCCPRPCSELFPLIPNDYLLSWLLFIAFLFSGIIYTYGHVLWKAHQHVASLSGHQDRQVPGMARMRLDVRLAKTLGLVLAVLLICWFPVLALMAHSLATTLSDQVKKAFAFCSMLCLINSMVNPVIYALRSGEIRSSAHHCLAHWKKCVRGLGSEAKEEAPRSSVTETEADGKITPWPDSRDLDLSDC
Description: Binding assay for CB2 agonists or inverse agonists ([3H]-CP-55,940 displacement, SK-N-MC membranes). Conditions: read-out: CB2 receptor binding percent inhibition. The method, then:
as §1, §2, §3

Test [2] addresses T1, human CB1 receptor. Description: Functional cell-based assay, CB1 receptor mediated change in CRE β-gal expression (adenylate cyclase activity). An excerpt: The CB1 and CB2 receptors are G-protein coupled receptors (GPCR), which influence cell function via the Gi-protein. These receptors modulate the activity of intracellular adenylate cyclase, which in turn produces the intracellular signal messenger cyclic-AMP (cAMP).
At baseline, or during non-ligand bound conditions, these receptors are constitutively active and tonically suppress adenylate cyclase activity. The binding of an agonist causes further receptor activation and produces additional suppression of adenylate cyclase activity. The binding of an inverse agonist inhibits the constitutive activity of the receptors and results in an increase in adenylate cyclase activity.
Test compounds were evaluated in SK-N-MC cells which, using standard transfection procedures, were stably transfected with human cDNA for pcDNA3-CRE β-gal and pcDNA3 CB1 receptor (human) or pcDNA3 CB2 receptor (human). By expressing CRE β-gal, the cells produced β-galactosidase in response to CRE promoter activation by cAMP. Cells expressing CRE β-gal and either the human CB1 or CB2 receptor will produce less β-galactosidase when treated with a CB1/CB2 agonist and will produce more β-galactosidase when treated with a CB1/CB2 inverse agonist.
The cells were grown in 96-well plates under standard cell culture conditions at 37° C. in a 5% CO2 atmosphere. After 3 days, the media was removed and a test compound in media (wherein the media was supplemented with 2 mM L-glutamine, […] sodium pyruvate, 0.1% low fatty acid FBS (fetal bovine serum) and antibiotics) was added to the cell. The plates were incubated for 30 minutes at 37° C. and the plate cells were then treated with forskolin over a 4-6 hour period, then washed and lysed. The β-galactosidase activity was quantitated using commercially available kit reagents (Promega Corp. Madison, Wis.) and a Vmax Plate Reader (Molecular Devices, Inc).
The change in β-galactosidase activity was determined by setting a vehicle treated cell's activity value at 100% and expressing the β-galactosidase activity measured in a corresponding compound treated cell as a percent of the vehicle treated cell activity.
The EC50 value for functional activity for compounds tested was calculated by linear regression and was obtained from studies in which varying compound concentrations were used.
Where an EC50 value was not obtained for a test compound, the value shown (in %) represents change in functional activity and was obtained from a study in which one compound concentration was used.

Where [3] appears, read: test concentration 0.25 μM (footnote 3).

T1 sequence (P21554 whole entry): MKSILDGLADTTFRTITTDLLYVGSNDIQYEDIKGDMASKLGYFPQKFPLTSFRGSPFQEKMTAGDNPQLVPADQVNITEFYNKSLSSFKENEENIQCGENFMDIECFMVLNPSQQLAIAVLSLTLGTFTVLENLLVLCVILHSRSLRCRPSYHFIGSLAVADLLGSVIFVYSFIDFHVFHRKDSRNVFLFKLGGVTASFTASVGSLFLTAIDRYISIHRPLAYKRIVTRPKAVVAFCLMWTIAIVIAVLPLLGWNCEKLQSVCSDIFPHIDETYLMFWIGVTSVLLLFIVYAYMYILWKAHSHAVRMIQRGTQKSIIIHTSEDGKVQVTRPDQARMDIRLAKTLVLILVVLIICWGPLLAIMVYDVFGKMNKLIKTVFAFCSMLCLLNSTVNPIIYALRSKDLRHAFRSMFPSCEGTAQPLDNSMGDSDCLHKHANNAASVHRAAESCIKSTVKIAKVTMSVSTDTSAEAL

Turning to `C[C@@H](NC(=O)c1nn(-c2ccc(F)cc2F)c2c1CCC2Cc1cccc(F)c1)c1ccccc1` (stereo partly drawn) [Cpd 19, 1-(2,4-difluoro-phenyl)-6-(3-fluoro-benzyl)-1,4,5,6-tetrahydro-cyclopentapyrazole-3-carboxylic acid [(1R)-1-phenyl-ethyl]-amide], the values for the inhibition at 0.25 µM at human CB1 receptor [1] (setting [3]) and at human CB2 receptor (setting [3]) were 52% and 26%, respectively. Besides, the EC50 (usually the concentration that produces a half-maximal response) at human CB1 receptor [2] is 200 nM.

On to `C[C@H](NC(=O)c1nn(-c2ccc(F)cc2F)c2c1CCC2Cc1cccc(F)c1)C1CCCCC1` (stereo partly drawn) [Cpd 20, 1-(2,4-difluoro-phenyl)-6-(3-fluoro-benzyl)-1,4,5,6-tetrahydro-cyclopentapyrazole-3-carboxylic acid [(1S)-1-cyclohexyl-ethyl]-amide], for which the inhibition – broadly, the change of the read-out against control, counted positive when it falls – at 0.25 µM amounted to 70% at human CB1 receptor [1] and 44% on human CB2 receptor. Further, the “CB1 Receptor Functional Activity (change in functional activity)” value at human CB1 receptor [2] (one compound concentration, vehicle treated cell = 100%) was found to be 37%.

For `C[C@@H](NC(=O)c1nn(-c2ccc(F)cc2F)c2c1CCC2Cc1cccc(F)c1)C1CCCCC1` (stereo partly drawn) [Cpd 21, 1-(2,4-difluoro-phenyl)-6-(3-fluoro-benzyl)-1,4,5,6-tetrahydro-cyclopentapyrazole-3-carboxylic acid [(1R)-1-cyclohexyl-ethyl]-amide], at human CB1 receptor [1], the IC50 – broadly, the midpoint of a concentration-inhibition curve – turned out to be 80 nM and the inhibition at 0.25 µM was determined as 67%. Moreover, the inhibition at 0.25 µM at human CB2 receptor worked out at 61%. This molecule also displayed an EC50 at human CB1 receptor [2] (CB1 Receptor Functional Inverse Agonist EC50, SK-N-MC cells, CRE β-gal, forskolin) of 40 nM.
